Test [1] has as its system N-methyl-D-aspartate receptor (NMDAR). On the set-up: species or system Rattus norvegicus.
Test [2] addresses NMDAR expressing GluN2B (NR2B) subunits (Rattus norvegicus, UniProt P35439+Q00960). Format: cell-based.

One may read the EC50 as the concentration needed to bring the measured effect to its halfway point. Lower therefore signals an effect from little substance.

Chain of NMDAR expressing GluN2B (NR2B) subunits (Q00960 27-1482, other chains not shown): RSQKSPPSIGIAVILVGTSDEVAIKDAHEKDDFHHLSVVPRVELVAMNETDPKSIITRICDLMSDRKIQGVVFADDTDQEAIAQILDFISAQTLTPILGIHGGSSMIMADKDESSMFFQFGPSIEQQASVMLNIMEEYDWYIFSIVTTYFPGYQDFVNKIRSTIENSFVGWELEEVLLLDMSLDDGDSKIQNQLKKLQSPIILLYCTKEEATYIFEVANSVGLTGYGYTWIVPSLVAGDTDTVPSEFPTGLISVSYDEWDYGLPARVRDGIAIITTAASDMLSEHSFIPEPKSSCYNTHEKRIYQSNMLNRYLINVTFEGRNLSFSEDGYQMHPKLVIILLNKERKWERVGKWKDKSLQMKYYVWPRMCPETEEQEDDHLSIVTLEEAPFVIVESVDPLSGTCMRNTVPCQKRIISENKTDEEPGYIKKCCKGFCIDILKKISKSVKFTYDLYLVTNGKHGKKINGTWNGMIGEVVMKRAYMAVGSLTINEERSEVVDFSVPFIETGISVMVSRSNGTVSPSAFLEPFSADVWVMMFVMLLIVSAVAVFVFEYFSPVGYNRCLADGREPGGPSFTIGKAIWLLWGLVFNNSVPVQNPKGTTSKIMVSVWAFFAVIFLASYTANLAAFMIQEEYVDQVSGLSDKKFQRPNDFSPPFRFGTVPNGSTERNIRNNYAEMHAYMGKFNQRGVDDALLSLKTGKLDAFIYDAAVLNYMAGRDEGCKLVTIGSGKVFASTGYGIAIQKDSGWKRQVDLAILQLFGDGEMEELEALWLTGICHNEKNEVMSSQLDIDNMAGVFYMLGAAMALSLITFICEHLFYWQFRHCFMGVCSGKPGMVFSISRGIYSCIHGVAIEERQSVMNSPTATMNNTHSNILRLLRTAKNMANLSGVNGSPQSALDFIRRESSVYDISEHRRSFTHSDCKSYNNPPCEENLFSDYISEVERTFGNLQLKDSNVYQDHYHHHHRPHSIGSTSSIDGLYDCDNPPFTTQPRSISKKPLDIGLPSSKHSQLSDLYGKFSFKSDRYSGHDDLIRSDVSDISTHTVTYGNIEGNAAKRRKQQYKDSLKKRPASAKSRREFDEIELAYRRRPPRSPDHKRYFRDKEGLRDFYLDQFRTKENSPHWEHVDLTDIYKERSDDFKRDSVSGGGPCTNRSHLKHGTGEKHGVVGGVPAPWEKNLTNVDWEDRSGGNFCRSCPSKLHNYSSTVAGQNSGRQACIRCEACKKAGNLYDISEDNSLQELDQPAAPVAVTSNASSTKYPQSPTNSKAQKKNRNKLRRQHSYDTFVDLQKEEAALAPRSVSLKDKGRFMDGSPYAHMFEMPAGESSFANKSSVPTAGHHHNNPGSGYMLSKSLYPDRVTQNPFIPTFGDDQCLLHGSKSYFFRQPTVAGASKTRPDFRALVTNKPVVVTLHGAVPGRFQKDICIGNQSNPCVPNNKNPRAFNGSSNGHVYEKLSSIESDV

In test [1], `CNC1(c2ccccc2Cl)CCCCC1=O` (racemic) [ketamine] displayed a 50% effective concentration (EC50) of roughly 10 µM. For `CC(C(O)c1ccc(O)cc1)N1CCC(Cc2ccccc2)CC1` (centres unmarked) [ifenprodil], in test [2], the “% inhibition at 10 μM” value amounted to 43.4 ± 7.3.

Source of the values: publication PMC4188808 (Neuropharmacology, 2014).
